Laboratory results reported in US20050113405A1, “Methods of treating rheumatoid arthritis using NF-kB inhibitors” (Wyeth, priority 2003, published 2005).

Tests used:
[1] = tested on: Lewis rats with adjuvant-induced arthritis; assay: Adjuvant-induced arthritis in Lewis rats, daily joint scores (hindpaw erythema and swelling); format: in vivo, rat
[2] = tested on: Lewis rats with adjuvant-induced arthritis; assay: Adjuvant-induced arthritis in Lewis rats, histological scoring of tarsal joints (Mankin and synovitis scores); format: in vivo, rat; details: for Tidemark Integrity (0-1) / Cartilage Cells (0-3) / Cartilage Structure (0-6) / Fibroplasia (0-3) / Inflammatory Cells (0-3) / Pannus (0-2) / Saffranin-O/Fast Green Staining (0-4) / Synovial Structure (0-3) / Total Mankin Score (0-14) / Total Synovitis Score (0-10): tarsal joints; for Cartilage Cells (0-3) / Cartilage Structure (0-6) / Fibroplasia (0-3) / Inflammatory Cells (0-3) / Pannus (0-2) / Saffranin-O/Fast Green Staining (0-4) / Synovial Structure (0-3) / Total Mankin Score (0-14) / Total Synovitis Score (0-10): mean ± SD
Method: Statistical analysis was performed using Abacus Concepts Super ANOVA. (Abacus Concepts, Inc., Berkeley, Calif.). All of the parameters of interest were subjected to Analysis of Variance with Duncan's new multiple range post hoc testing between groups. Data are expressed throughout as mean±standard deviation (SD), and differences were deemed significant if p<0.05.
At the end of the study the rats were euthanized with CO2, hindlimbs were removed at necropsy and fixed in 10% buffered formalin, and the tarsal joints were decalcified and embedded in paraffin. Histologic sections will be stained with Hematoxylin and Eosin or Saffranin O—Fast Green stain.
Slides will be coded so that the examiner will be blinded to the treatment groups. […] Articular cartilage and bone will be evaluated using Mankin's histological grading system (method described by Mankin H J, Dorfman, H:Lippieo L. L. Zarins. 1971. Biochemical and metabolic abnormalities in articular cartilage from osteoarthritic human hip. See J. Bone Joint Surg (AM) 53A:152-153) (Table 6).

[3] = tested on: BALB/c mice; assay: Collagen induced arthritis model (anti-type II collagen mAbs plus LPS), hind paw volume; format: in vivo, mouse; details: 2.5 mg/kg orally once daily; over the course of the experiment
Method: Compounds are evaluated in BALB/c mice, 6-8 weeks of age, in which arthritis is induced by monoclonal antibodies raised against type II collagen, plus lipopolysaccharide (LPS). The animals were administered intravenously with a combination of 4 different mAbs totaling 4 mg/mouse on day 0, and followed by intravenous 25 μg of LPS 72 hours later (day 3). From day 3, one hour after LPS application, tested compounds are give orally once daily for 15 days. For each animal, increase in volume of both hind paws is measured using a plethysmometer with water cell (12 mm diameter) on days 0, 5, 7, 10, 14 and 17. Percent inhibition of increase in volume is calculated. Reduction of edema in the hind paws by 30% or more is considered significant.

[4] = tested on: HLA-B27 transgenic rats; assay: HLA-B27 transgenic rat, stool and clinical joint scores; format: in vivo; details: sub-optimal dose 0.6 mg/kg
From the text: (§1) The HLA-B27 transgenic rat expresses two human proteins (HLA-B27 and β2 microglobulin) that, over time, provoke a misdirected immune response. This model represents a chronic intestinal inflammation with associated arthritis induced by the human class I major histocompatibility allele HLA-B27 that is strongly associated with human disease. […] If the disease is allowed to progress, they begin to show symptoms of arthritis. […] Histological scoring of synovitis and cartilage damage in the tarsal joints after 29 days of treatment was also conducted.

[5] = tested on: HLA-B27 transgenic rats; assay: HLA-B27 transgenic rat, histological scoring of synovitis and cartilage damage in tarsal joints; format: in vivo; details: 0.6 mg/kg orally for 29 days
From the text: as §1

[6] = 0.1 mg/kg orally for 2 weeks from day 8 after CFA
[7] = 0.3 mg/kg orally for 2 weeks from day 8 after CFA
[8] = 1 mg/kg orally for 2 weeks from day 8 after CFA

SMILES: C[C@@H]1c2cc(F)ccc2-c2ccccc2N1S(=O)(=O)c1ccc(O)cc1 (stereo in doubt) [Example 3, 4-[(8-Fluoro-6-methylphenanthridin-5(6H)-yl)sulfonyl]phenol]
- joint scores (paw swelling and redness, maximal score per day 12) ([1]; Day 8, 0.1 mg/kg orally each day from Day 8 after adjuvant): 11.3
- joint scores (paw swelling and redness, maximal score per day 12) ([1]; Day 8, 0.3 mg/kg orally each day from Day 8 after adjuvant): 11.5
- joint scores (paw swelling and redness, maximal score per day 12) ([1]; Day 8, 1 mg/kg orally each day from Day 8 after adjuvant): 11.3
- joint scores (paw swelling and redness, maximal score per day 12) ([1]; Day 9, 0.1 mg/kg orally each day from Day 8 after adjuvant): 10.7
- joint scores (paw swelling and redness, maximal score per day 12) ([1]; Day 9, 0.3 mg/kg orally each day from Day 8 after adjuvant): 9.8
- joint scores (paw swelling and redness, maximal score per day 12) ([1]; Day 9, 1 mg/kg orally each day from Day 8 after adjuvant): 8.8
- joint scores (paw swelling and redness, maximal score per day 12) ([1]; Day 10, 0.1 mg/kg orally each day from Day 8 after adjuvant): 9.3
- joint scores (paw swelling and redness, maximal score per day 12) ([1]; Day 10, 0.3 mg/kg orally each day from Day 8 after adjuvant): 7.3
- joint scores (paw swelling and redness, maximal score per day 12) ([1]; Day 10, 1 mg/kg orally each day from Day 8 after adjuvant): 7
- joint scores (paw swelling and redness, maximal score per day 12) ([1]; Day 11, 0.1 mg/kg orally each day from Day 8 after adjuvant): 9.7
- joint scores (paw swelling and redness, maximal score per day 12) ([1]; Day 11, 0.3 mg/kg orally each day from Day 8 after adjuvant): 7
- joint scores (paw swelling and redness, maximal score per day 12) ([1]; Day 11, 1 mg/kg orally each day from Day 8 after adjuvant): 6
- joint scores (paw swelling and redness, maximal score per day 12) ([1]; Day 12, 0.1 mg/kg orally each day from Day 8 after adjuvant): 10
- joint scores (paw swelling and redness, maximal score per day 12) ([1]; Day 12, 0.3 mg/kg orally each day from Day 8 after adjuvant): 6.7
- joint scores (paw swelling and redness, maximal score per day 12) ([1]; Day 12, 1 mg/kg orally each day from Day 8 after adjuvant): 5
- joint scores (paw swelling and redness, maximal score per day 12) ([1]; Day 13, 0.1 mg/kg orally each day from Day 8 after adjuvant): 4.2
- joint scores (paw swelling and redness, maximal score per day 12) ([1]; Day 13, 0.3 mg/kg orally each day from Day 8 after adjuvant): 3.7
- joint scores (paw swelling and redness, maximal score per day 12) ([1]; Day 13, 1 mg/kg orally each day from Day 8 after adjuvant): 1.7
- joint scores (paw swelling and redness, maximal score per day 12) ([1]; Day 14, 0.1 mg/kg orally each day from Day 8 after adjuvant): 3.5
- joint scores (paw swelling and redness, maximal score per day 12) ([1]; Day 14, 0.3 mg/kg orally each day from Day 8 after adjuvant): 3
- joint scores (paw swelling and redness, maximal score per day 12) ([1]; Day 14, 1 mg/kg orally each day from Day 8 after adjuvant): 1.3
- joint scores (paw swelling and redness, maximal score per day 12) ([1]; Day 15, 0.1 mg/kg orally each day from Day 8 after adjuvant): 3.5
- joint scores (paw swelling and redness, maximal score per day 12) ([1]; Day 15, 0.3 mg/kg orally each day from Day 8 after adjuvant): 3.7
- joint scores (paw swelling and redness, maximal score per day 12) ([1]; Day 15, 1 mg/kg orally each day from Day 8 after adjuvant): 1.3
- joint scores (paw swelling and redness, maximal score per day 12) ([1]; Day 16, 0.1 mg/kg orally each day from Day 8 after adjuvant): 3.3
- joint scores (paw swelling and redness, maximal score per day 12) ([1]; Day 16, 0.3 mg/kg orally each day from Day 8 after adjuvant): 2.3
- joint scores (paw swelling and redness, maximal score per day 12) ([1]; Day 16, 1 mg/kg orally each day from Day 8 after adjuvant): 1.2
- joint scores (paw swelling and redness, maximal score per day 12) ([1]; Day 17, 0.1 mg/kg orally each day from Day 8 after adjuvant): 3.3
- joint scores (paw swelling and redness, maximal score per day 12) ([1]; Day 17, 0.3 mg/kg orally each day from Day 8 after adjuvant): 2.3
- joint scores (paw swelling and redness, maximal score per day 12) ([1]; Day 17, 1 mg/kg orally each day from Day 8 after adjuvant): 1.2
- joint scores (paw swelling and redness, maximal score per day 12) ([1]; Day 18, 0.1 mg/kg orally each day from Day 8 after adjuvant): 3.3
- joint scores (paw swelling and redness, maximal score per day 12) ([1]; Day 18, 0.3 mg/kg orally each day from Day 8 after adjuvant): 2.3
- joint scores (paw swelling and redness, maximal score per day 12) ([1]; Day 18, 1 mg/kg orally each day from Day 8 after adjuvant): 1.2
- joint scores (paw swelling and redness, maximal score per day 12) ([1]; Day 19, 0.1 mg/kg orally each day from Day 8 after adjuvant): 3
- joint scores (paw swelling and redness, maximal score per day 12) ([1]; Day 19, 0.3 mg/kg orally each day from Day 8 after adjuvant): 2
- joint scores (paw swelling and redness, maximal score per day 12) ([1]; Day 19, 1 mg/kg orally each day from Day 8 after adjuvant): 1.2
- joint scores (paw swelling and redness, maximal score per day 12) ([1]; Day 20, 0.1 mg/kg orally each day from Day 8 after adjuvant): 2.8
- joint scores (paw swelling and redness, maximal score per day 12) ([1]; Day 20, 0.3 mg/kg orally each day from Day 8 after adjuvant): 2
- joint scores (paw swelling and redness, maximal score per day 12) ([1]; Day 20, 1 mg/kg orally each day from Day 8 after adjuvant): 1.2
- joint scores (paw swelling and redness, maximal score per day 12) ([1]; Day 21, 0.1 mg/kg orally each day from Day 8 after adjuvant): 2.5
- joint scores (paw swelling and redness, maximal score per day 12) ([1]; Day 21, 0.3 mg/kg orally each day from Day 8 after adjuvant): 1.7
- joint scores (paw swelling and redness, maximal score per day 12) ([1]; Day 21, 1 mg/kg orally each day from Day 8 after adjuvant): 1.2
- joint scores (paw swelling and redness, maximal score per day 12) ([1]; Day 22, 0.1 mg/kg orally each day from Day 8 after adjuvant): 2.5
- joint scores (paw swelling and redness, maximal score per day 12) ([1]; Day 22, 0.3 mg/kg orally each day from Day 8 after adjuvant): 1.7
- joint scores (paw swelling and redness, maximal score per day 12) ([1]; Day 22, 1 mg/kg orally each day from Day 8 after adjuvant): 1.2
- joint scores (paw swelling and redness, maximal score per day 12) ([1]; Day 23, 0.1 mg/kg orally each day from Day 8 after adjuvant): 1.2
- joint scores (paw swelling and redness, maximal score per day 12) ([1]; Day 23, 0.3 mg/kg orally each day from Day 8 after adjuvant): 1
- joint scores (paw swelling and redness, maximal score per day 12) ([1]; Day 23, 1 mg/kg orally each day from Day 8 after adjuvant): 1
- joint scores (paw swelling and redness, maximal score per day 12) ([1]; Day 24, 0.1 mg/kg orally each day from Day 8 after adjuvant): 1.3
- joint scores (paw swelling and redness, maximal score per day 12) ([1]; Day 24, 0.3 mg/kg orally each day from Day 8 after adjuvant): 1.3
- joint scores (paw swelling and redness, maximal score per day 12) ([1]; Day 24, 1 mg/kg orally each day from Day 8 after adjuvant): 0.8
- Tidemark Integrity (0-1) [2, 6]: 0
- Cartilage Cells (0-3) [2, 6]: 1.92 ± 0.21
- Cartilage Structure (0-6) [2, 6]: 2.33 ± 0.68
- Fibroplasia (0-3) [2, 6]: 1.75 ± 0.42
- Inflammatory Cells (0-3) [2, 6]: 1.83 ± 0.52
- Pannus (0-2) [2, 6]: 1.50 ± 0.84
- Saffranin-O/Fast Green Staining (0-4) [2, 6]: 2.42 ± 0.67
- Synovial Structure (0-3) [2, 6]: 2.33 ± 0.75
- Total Mankin Score (0-14) [2, 6]: 6.83 ± 1.25
- Total Synovitis Score (0-10) [2, 6]: 7.42 ± 2.25
- Tidemark Integrity (0-1) [2, 7]: 0
- Cartilage Cells (0-3) [2, 7]: 1.50 ± 0.32
- Cartilage Structure (0-6) [2, 7]: 1.75 ± 0.42
- Fibroplasia (0-3) [2, 7]: 1.67 ± 0.26*t
- Inflammatory Cells (0-3) [2, 7]: 1.25 ± 0.27
- Pannus (0-2) [2, 7]: 0.50 ± 0.84
- Saffranin-O/Fast Green Staining (0-4) [2, 7]: 2.17 ± 0.26
- Synovial Structure (0-3) [2, 7]: 1.58 ± 0.38
- Total Mankin Score (0-14) [2, 7]: 5.42 ± 0.74*t
- Total Synovitis Score (0-10) [2, 7]: 5.00 ± 1.30*#t
- Tidemark Integrity (0-1) [2, 8]: 0
- Cartilage Cells (0-3) [2, 8]: 1.17 ± 0.26*t
- Cartilage Structure (0-6) [2, 8]: 1.25 ± 0.27
- Fibroplasia (0-3) [2, 8]: 1.33 ± 0.41*t
- Inflammatory Cells (0-3) [2, 8]: 1.17 ± 0.26
- Pannus (0-2) [2, 8]: 0.25 ± 0.42
- Saffranin-O/Fast Green Staining (0-4) [2, 8]: 2.17 ± 0.26
- Synovial Structure (0-3) [2, 8]: 1.42 ± 0.38
- Total Mankin Score (0-14) [2, 8]: 4.58 ± 0.74*t
- Total Synovitis Score (0-10) [2, 8]: 4.17 ± 1.21*#t
- overall synovitis and cartilage scores ([2]; all concentrations tested (down to 0.1 mg/kg), oral): significantly improved
- inhibition of paw edema (increase in hind paw volume) [3]: > 30%
- melting point: 188 °C

SMILES: COc1cc(OC)cc(N2CCN(C(=O)[C@](C)(C#N)[C@H](c3ccccc3OC)c3cccc4ccccc34)CC2)c1 [Example 4, (S)-3-[4-(3,5-dimethoxyphenyl)piperazin-1-yl]-2-[(S)-(2-methoxyphenyl)(1-naphthyl)methyl]-2-methyl-3-oxopropanenitrile]
- melting point: 186 to 188 °C

SMILES: C[C@]12C=CC(=O)C=C1CC[C@@H]1[C@@H]2[C@@H](O)C[C@@]2(C)[C@H]1CC[C@]2(O)C(=O)CO [Prednisolone]
- improvement in the joint scores [4]: 50%
- Tidemark Integrity (0-2) [5]: 0
- Cartilage Cells ([5]; mean ± SD): 2.20 ± 0.45
- Cartilage Structure (0-6) ([5]; mean ± SD): 3.40 ± 0.55
- Fibroplasia (0-3) ([5]; mean ± SD): 2.00 ± 0.71
- Inflammatory Cells (0-3) ([5]; mean ± SD): 2.00 ± 0.00
- Pannus (0-2) ([5]; mean ± SD): 1.60 ± 0.89
- Safranin-O/Fast Green Staining (0-4) ([5]; mean ± SD): 3.00 ± 0.00
- Synovial Structure (0-3) ([5]; mean ± SD): 2.40 ± 0.55
- Total Mankin Score ([5]; mean ± SD): 8.60 ± 0.89
- Total Synovitis Score (0-11) ([5]; mean ± SD): 8.00 ± 1.87
